{"source": "DBAASP", "test_in_all_cases": "≥ marks a high value that may be exact or a test limit, other limits are often not marked, values filed in µg/mL are converted to µM", "key": {"[1]": {"test_system": "Bacillus cereus ATCC 11778"}, "[2]": {"test_system": "Bacillus subtilis CCT 2576"}, "[3]": {"test_system": "Bacillus thuringiensis ATCC 10792"}, "[4]": {"test_system": "Enterococcus faecium CCT 5079"}, "[5]": {"test_system": "Enterococcus hirae ATCC 10541"}, "[6]": {"test_system": "Escherichia coli ATCC 11775"}, "[7]": {"test_system": "Escherichia coli ATCC 25922"}, "[8]": {"test_system": "Escherichia coli CCT 1457"}, "[9]": {"test_system": "Micrococcus luteus ATCC 4698"}, "[10]": {"test_system": "Pseudomonas aeruginosa ATCC 13388"}, "[11]": {"test_system": "Pseudomonas aeruginosa ATCC 15422"}, "[12]": {"test_system": "Salmonella enterica subsp. enterica serovar Choleraesuis ATCC 10708"}, "[13]": {"test_system": "Salmonella enterica subsp. enterica serovar Typhimurium ATCC 14028"}, "[14]": {"test_system": "Staphylococcus aureus ATCC 25923"}, "[15]": {"test_system": "Staphylococcus aureus ATCC 6538"}, "[16]": {"test_system": "Staphylococcus aureus CCT 2580"}, "[17]": {"test_system": "Staphylococcus aureus CCT 6538"}, "[18]": {"test_system": "Staphylococcus epidermidis ATCC 12228"}, "[19]": {"test_system": "Streptococcus mutans AU159"}, "[20]": {"test_system": "Streptococcus pneumoniae ATCC 11733"}, "[21]": {"test_system": "Acinetobacter baumannii"}, "[22]": {"test_system": "Arcyria cinerea"}, "[23]": {"test_system": "Bacillus cereus"}, "[24]": {"test_system": "Bacillus subtilis"}, "[25]": {"test_system": "Candida albicans 1"}, "[26]": {"test_system": "Candida albicans 5"}, "[27]": {"test_system": "Candida albicans"}, "[28]": {"test_system": "Candida glabrata 1"}, "[29]": {"test_system": "Candida glabrata"}, "[30]": {"test_system": "Cryptococcus neoformans"}, "[31]": {"test_system": "Enterococcus faecalis"}, "[32]": {"test_system": "Enterococcus faecium"}, "[33]": {"test_system": "Escherichia coli"}, "[34]": {"test_system": "Klebsiella oxytoca"}, "[35]": {"test_system": "Klebsiella pneumoniae 1"}, "[36]": {"test_system": "Klebsiella pneumoniae 2"}, "[37]": {"test_system": "Klebsiella pneumoniae 5"}, "[38]": {"test_system": "Klebsiella pneumoniae"}, "[39]": {"test_system": "Nocardia asteroides"}, "[40]": {"test_system": "Proteus mirabilis"}, "[41]": {"test_system": "Proteus vulgaris"}, "[42]": {"test_system": "Pseudomonas aeruginosa 1"}, "[43]": {"test_system": "Pseudomonas aeruginosa 2"}, "[44]": {"test_system": "Pseudomonas aeruginosa ATCC 27853"}, "[45]": {"test_system": "Salmonella enterica subsp. enterica serovar Paratyphi A"}, "[46]": {"test_system": "Serratia marcescens"}, "[47]": {"test_system": "Shigella dysenteriae"}, "[48]": {"test_system": "Staphylococcus aureus 1"}, "[49]": {"test_system": "Staphylococcus aureus 4"}, "[50]": {"test_system": "Staphylococcus epidermidis"}, "[51]": {"test_system": "Stenotrophomonas maltophilia 2"}, "[52]": {"test_system": "Stenotrophomonas maltophilia"}, "[53]": {"test_system": "Bacillus subtilis PY79"}, "[54]": {"test_system": "Escherichia coli DH5alpha"}, "[55]": {"test_system": "Klebsiella pneumoniae ATCC 700603"}, "[56]": {"test_system": "Pseudomonas aeruginosa PA14"}, "[57]": {"test_system": "Pseudomonas aeruginosa PAO1"}, "[58]": {"test_system": "Staphylococcus aureus ATCC 6538P"}, "[59]": {"test_system": "Fusarium graminearum PH-1"}}, "data": [{"smiles": "CC[C@H](C)[C@H](N)C(=O)N[C@@H](CC(N)=O)C(=O)N[C@@H](Cc1c[nH]c2ccccc12)C(=O)N[C@@H](CC(C)C)C(=O)N[C@@H](CCCCN)C(=O)N[C@@H](C)C(=O)N[C@@H](CCCCN)C(=O)N[C@@H](CCCCN)C(=O)N[C@H](C(=O)N[C@@H](C)C(=O)NCC(=O)N[C@@H](CCSC)C(=O)N[C@H](C(=O)N[C@@H](CC(C)C)C(N)=O)[C@@H](C)CC)C(C)C", "note": "[INWLKAKKVAGMIL]", "values": [{"measurement": "MIC", "setting": "[1]", "value": 10.1, "unit": "µM"}, {"measurement": "MIC", "setting": "[2]", "value": 7.38, "unit": "µM"}, {"measurement": "MIC", "setting": "[3]", "value": "≥ 78.9", "unit": "µM"}, {"measurement": "MIC", "setting": "[4]", "value": "≥ 158", "unit": "µM"}, {"measurement": "MIC", "setting": "[5]", "value": "≥ 39.7", "unit": "µM"}, {"measurement": "MIC", "setting": "[6]", "value": "≥ 39.7", "unit": "µM"}, {"measurement": "MIC", "setting": "[7]", "value": 14.8, "unit": "µM"}, {"measurement": "MIC", "setting": "[8]", "value": 19.6, "unit": "µM"}, {"measurement": "MIC", "setting": "[9]", "value": 19.6, "unit": "µM"}, {"measurement": "MIC", "setting": "[10]", "value": "≥ 158", "unit": "µM"}, {"measurement": "MIC", "setting": "[11]", "value": "≥ 78.9", "unit": "µM"}, {"measurement": "MIC", "setting": "[12]", "value": "≥ 315", "unit": "µM"}, {"measurement": "MIC", "setting": "[13]", "value": 315, "unit": "µM"}, {"measurement": "MIC", "setting": "[14]", "value": 39.7, "unit": "µM"}, {"measurement": "MIC", "setting": "[15]", "value": 27.1, "unit": "µM"}, {"measurement": "MIC", "setting": "[16]", "value": 27.1, "unit": "µM"}, {"measurement": "MIC", "setting": "[17]", "value": "≥ 39.7", "unit": "µM"}, {"measurement": "MIC", "setting": "[18]", "value": 39.7, "unit": "µM"}, {"measurement": "MIC", "setting": "[19]", "value": "≥ 315", "unit": "µM"}, {"measurement": "MIC", "setting": "[20]", "value": "≥ 78.9", "unit": "µM"}]}, {"smiles": "CC[C@H](C)[C@H](NC(=O)[C@H](CO)NC(=O)[C@H](CCCCN)NC(=O)[C@@H](NC(=O)[C@H](CCCCN)NC(=O)[C@H](CCCCN)NC(=O)[C@H](CCCCN)NC(=O)[C@@H](NC(=O)[C@H](CCCCN)NC(=O)[C@@H]1CSSC[C@H](NC(=O)[C@H](CCCCN)NC(=O)[C@@H](N)CCCCN)C(=O)N[C@@H](CCCCN)C(=O)N[C@@H](Cc2ccccc2)C(=O)N[C@@H](Cc2ccccc2)C(=O)N1)C(C)C)[C@@H](C)CC)C(=O)NCC(=O)N[C@@H](Cc1ccccc1)C(=O)N[C@@H](CCC(N)=O)C(=O)N[C@H](C(=O)N1CCC[C@H]1C(=O)N[C@H](C(=O)N[C@H](C(=O)N[C@@H](CO)C(=O)N[C@H](C(=O)N1CCC[C@H]1C(=O)N[C@@H](Cc1ccccc1)C(=O)N[C@@H](CCCCN)C(=O)O)[C@@H](C)CC)C(C)C)[C@@H](C)CC)[C@@H](C)CC", "note": "[KKCKFFCKVKKKIKSIGFQIPIVSIPFK]", "values": [{"measurement": "MIC", "setting": "[21]", "value": "≥ 60.9", "unit": "µM"}, {"measurement": "MIC", "setting": "[22]", "value": 5.71, "unit": "µM"}, {"measurement": "MIC", "setting": "[23]", "value": "≥ 60.9", "unit": "µM"}, {"measurement": "MIC", "setting": "[24]", "value": 2.86, "unit": "µM"}, {"measurement": "MIC", "setting": "[25]", "value": 2.86, "unit": "µM"}, {"measurement": "MIC", "setting": "[26]", "value": "≥ 60.9", "unit": "µM"}, {"measurement": "MIC", "setting": "[27]", "value": 11.4, "unit": "µM"}, {"measurement": "MIC", "setting": "[28]", "value": 2.86, "unit": "µM"}, {"measurement": "MIC", "setting": "[29]", "value": "≥ 60.9", "unit": "µM"}, {"measurement": "MIC", "setting": "[30]", "value": "≥ 60.9", "unit": "µM"}, {"measurement": "MIC", "setting": "[31]", "value": 22.8, "unit": "µM"}, {"measurement": "MIC", "setting": "[32]", "value": 2.86, "unit": "µM"}, {"measurement": "MIC", "setting": "[33]", "value": 4.04, "unit": "µM"}, {"measurement": "MIC", "setting": "[34]", "value": 1.43, "unit": "µM"}, {"measurement": "MIC", "setting": "[35]", "value": 11.4, "unit": "µM"}, {"measurement": "MIC", "setting": "[36]", "value": 5.71, "unit": "µM"}, {"measurement": "MIC", "setting": "[37]", "value": "≥ 60.9", "unit": "µM"}, {"measurement": "MIC", "setting": "[38]", "value": 22.8, "unit": "µM"}, {"measurement": "MIC", "setting": "[39]", "value": 22.8, "unit": "µM"}, {"measurement": "MIC", "setting": "[40]", "value": 5.71, "unit": "µM"}, {"measurement": "MIC", "setting": "[41]", "value": "≥ 60.9", "unit": "µM"}, {"measurement": "MIC", "setting": "[42]", "value": 5.71, "unit": "µM"}, {"measurement": "MIC", "setting": "[43]", "value": 1.43, "unit": "µM"}, {"measurement": "MIC", "setting": "[44]", "value": 2.86, "unit": "µM"}, {"measurement": "MIC", "setting": "[45]", "value": 11.4, "unit": "µM"}, {"measurement": "MIC", "setting": "[46]", "value": "≥ 60.9", "unit": "µM"}, {"measurement": "MIC", "setting": "[47]", "value": 1.43, "unit": "µM"}, {"measurement": "MIC", "setting": "[48]", "value": 2.02, "unit": "µM"}, {"measurement": "MIC", "setting": "[49]", "value": "≥ 60.9", "unit": "µM"}, {"measurement": "MIC", "setting": "[14]", "value": "> 60.9", "unit": "µM"}, {"measurement": "MIC", "setting": "[50]", "value": 2.86, "unit": "µM"}, {"measurement": "MIC", "setting": "[51]", "value": 2.86, "unit": "µM"}, {"measurement": "MIC", "setting": "[52]", "value": 11.4, "unit": "µM"}]}, {"smiles": "CC(=O)NC(CC(C)C)C(=O)NC(CCCNC(=N)N)C(=O)NC(C(=O)NC(CCCNC(=N)N)C(=O)NC(CC(C)C)C(=O)NC(C)C(=O)NC(CO)C(=O)NC(Cc1c[nH]cn1)C(=O)NC(CC(C)C)C(=O)NC(CCCNC(=N)N)C(=O)NC(CCCCN)C(=O)NC(CC(C)C)C(=O)NC(CCCNC(=N)N)C(=O)NC(CCCCN)C(=O)NC(CCCNC(=N)N)C(=O)NC(CC(C)C)C(=O)NC(CC(C)C)C(N)=O)C(C)C", "note": "(stereo unspecified) [LRVRLASHLRKLRKRLL]", "values": [{"measurement": "MIC", "setting": "[53]", "value": "≥ 100", "unit": "µM"}, {"measurement": "MIC", "setting": "[7]", "value": 6.25, "unit": "µM"}, {"measurement": "MIC", "setting": "[54]", "value": 12.5, "unit": "µM"}, {"measurement": "MIC", "setting": "[55]", "value": 3.12, "unit": "µM"}, {"measurement": "MIC", "setting": "[56]", "value": "≥ 50", "unit": "µM"}, {"measurement": "MIC", "setting": "[57]", "value": 25, "unit": "µM"}, {"measurement": "MIC", "setting": "[58]", "value": "≥ 100", "unit": "µM"}]}, {"smiles": "NC(N)=NCCC[C@H](NC(=O)[C@H](CCCN=C(N)N)NC(=O)[C@H](CCCN=C(N)N)NC(=O)[C@H](Cc1ccccc1)NC(=O)CNC(=O)[C@@H](N)CCCN=C(N)N)C(=O)O", "note": "[RGFRRR]", "values": [{"measurement": "MIC", "setting": "[59]", "value": 12, "unit": "µM"}]}]}
